In BindingDB's records for doi:10.1074/jbc.M110.156463 (Merck Research Laboratories, 2011):

target: T1, 3-phosphoinositide-dependent protein kinase 1 (Homo sapiens, UniProt O15530); test: Proliferation Assay
T1 sequence (O15530 whole entry): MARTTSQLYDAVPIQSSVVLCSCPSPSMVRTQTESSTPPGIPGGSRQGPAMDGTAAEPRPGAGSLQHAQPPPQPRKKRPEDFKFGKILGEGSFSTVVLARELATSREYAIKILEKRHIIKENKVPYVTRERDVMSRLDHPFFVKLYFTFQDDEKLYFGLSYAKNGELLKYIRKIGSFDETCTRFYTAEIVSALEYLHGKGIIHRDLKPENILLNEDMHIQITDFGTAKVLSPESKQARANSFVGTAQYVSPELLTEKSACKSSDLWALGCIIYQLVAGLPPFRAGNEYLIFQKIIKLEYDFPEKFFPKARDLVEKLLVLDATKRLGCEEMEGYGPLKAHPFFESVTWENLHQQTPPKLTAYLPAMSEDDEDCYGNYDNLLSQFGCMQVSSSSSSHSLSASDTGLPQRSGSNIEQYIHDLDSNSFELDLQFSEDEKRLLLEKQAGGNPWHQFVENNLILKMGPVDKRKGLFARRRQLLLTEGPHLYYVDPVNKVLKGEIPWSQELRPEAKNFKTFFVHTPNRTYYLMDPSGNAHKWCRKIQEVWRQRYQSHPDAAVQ
Protocol: Enzyme potency (PDK1 EC50)was determined using recombinant, purified full-length human PDK1 enzyme and AKT-Thr-308-tide as substrate.

Compared with `CC(Nc1nc2c(C#CC3CC3)c[nH]c(=O)c2c2cc(-c3cn[nH]c3)ccc12)C(C)(C)C` (stereo unspecified) [PDK1 inhibitor, 2], `CC(C)(C)c1nc2c3ccc(F)cc3c3c(=O)[nH]ccc3c2[nH]1` [Jak Inhibitor 1] is 9-fold lower in EC50: 9 nM for the first, 1 nM for the second. The second is the more potent here.

Compared with `COc1ccc(C#Cc2ccc3ncc4ncn(-c5ccc(CCN)cc5)c4c3c2)cc1` [PDK1 inhibitor, 4], `Cc1[nH]nc2c1c(=O)n(CCCN)c1ccc(Cl)cc21` is 22-fold lower in EC50: 200 nM for the first, 9 nM for the second. The second is the more potent here.

Going from `Cc1[nH]nc(-c2nc3cc4c[nH][nH]c4cc3n2)c1C(=O)NC1CCNCC1` [PDK1 inhibitor, 6] to `O=C(NCCCNc1nc(Nc2cccc(NC(=O)N3CCCC3)c2)ncc1I)c1cccs1` [N-{3-[(5-iodo-4-{[3-(thiophen-2-ylformamido)propyl]amino}pyrimidin-2-yl)amino]phenyl}pyrrolidine-1-carboxamide], the EC50 rises from 12 nM to 26 nM (2.2-fold). The first is the more potent here.
